Results on one compound are retold here after patent publication US7183106B1, “Bacterial inosine 5′-monophosphate dehydrogenase (“IMPDH”) DNA as a dominant selectable marker in mammals and other eukaryotes” (The United States of America as represented by the United …, priority 2004, dated 2007).

Molecules are shown by their SMILES.

Holding throughout (assay): MPA toxicity by MTT assay
The test system of one data set is COS7 cells. The format is cell-based, monkey. The protocol:
The mammalian cells (2×10^7) (i.e. V79, MDA-MB-231, PC3, COS7) were washed once with phosphate buffered saline (PBS), resuspended in 400 μl of Cytomix buffer, placed in an electroporation cuvette and transfected with 10 μg of DNA by electroporation at 200V, 30 ms, in an ElectroSquarePorator T280 electroporator (BTX, Inc., San Diego, Calif.). Immediately after electroporation, the cuvettes were placed on ice for 10–15 min. After that the cells were washed once in PBS and 1×10^6 viable cells, as determined by trypan blue exclusion, were re-suspended in 10 ml of growth medium in 100 mm tissue culture plates, incubated overnight at 37° C. and treated the next day with 0.8 μg/ml of MPA (stock concentration at 14.2 mg/ml in DMSO, Sigma, St. Louis, Mo.) or 600 μg/ml of G418. For the different assays, cells were obtained from either individual or pooled MPA-resistant colonies. For colony isolation, visible individual colonies were each picked and aspirated into a glass Pasteur pipette and transferred into a well of a 24-well tissue culture plate. The next day, after rinsing the wells with the colonies with PBS and incubation for 1–2 min in a drop of a trypsin/EDTA solution, the cells within each well were dispersed by forceful pipetting. Next, the cells were incubated in growth medium to generate a monolayer culture, which was used to determine the cells' susceptibility to MPA. […] MPA toxicity was determined by the MTT (methylthiazoletetrazolium) assay (described in detail below) while the expression of the green fluorescent protein (GFP) was detected by fluorescence microscopy and/or flow cytometry.
Cell survival and proliferation was measured using the MTT assay, which detects active mitochondria and as a result viable cells. […] The plates were then centrifuged at 1000 rpm for 5 min, supernatants discarded and 100 µl of DMSO added per well, and the plates were read at 540 nm using a microtiter plate reader.

In the next data set the test system is V79 cells. The format is cell-based, Chinese hamster. The method, then:
(§1) The mammalian cells (2×10^7) (i.e. V79, MDA-MB-231, PC3, COS7) were washed once with phosphate buffered saline (PBS), resuspended in 400 μl of Cytomix buffer, placed in an electroporation cuvette and transfected with 10 μg of DNA by electroporation at 200V, 30 ms, in an ElectroSquarePorator T280 electroporator (BTX, Inc., San Diego, Calif.). Immediately after electroporation, the cuvettes were placed on ice for 10–15 min. After that the cells were washed once in PBS and 1×10^6 viable cells, as determined by trypan blue exclusion, were re-suspended in 10 ml of growth medium in 100 mm tissue culture plates, incubated overnight at 37° C. and treated the next day with 0.8 μg/ml of MPA (stock concentration at 14.2 mg/ml in DMSO, Sigma, St. Louis, Mo.) or 600 μg/ml of G418. For the different assays, cells were obtained from either individual or pooled MPA-resistant colonies. For colony isolation, visible individual colonies were each picked and aspirated into a glass Pasteur pipette and transferred into a well of a 24-well tissue culture plate. The next day, after rinsing the wells with the colonies with PBS and incubation for 1–2 min in a drop of a trypsin/EDTA solution, the cells within each well were dispersed by forceful pipetting. Next, the cells were incubated in growth medium to generate a monolayer culture, which was used to determine the cells' susceptibility to MPA. Cultures were also obtained from single MPA-resistant cells derived from pooled colonies by seeding 2.5 cells/ml into 96-well flat-bottom microtiter plates in 200 μl of growth medium/well and only cultures deriving from wells that were initially found to contain single cells were used. MPA toxicity was determined by the MTT (methylthiazoletetrazolium) assay (described in detail below) while the expression of the green fluorescent protein (GFP) was detected by fluorescence microscopy and/or flow cytometry.
(§2) Cell survival and proliferation was measured using the MTT assay, which detects active mitochondria and as a result viable cells. For this assay, 2×10^4 cells were suspended in 200 μl of growth medium/well in 96-well flat-bottom microtiter plates with various stimuli and incubated at 37° C. After 6 d, 10 μl of MTT solution (5 mg/ml in PBS) (Sigma, St. Louis, Mo.) was added to each well and the plates were incubated for an additional 4 h at 37° C. In the case of V79 cells, which grow twice as fast as the other cell lines, the MTT solution was added after 3 d. The plates were then centrifuged at 1000 rpm for 5 min, supernatants discarded and 100 µl of DMSO added per well, and the plates were read at 540 nm using a microtiter plate reader.

The test system of a further data set is MDA-MB-231 cells. The format is cell-based, human. The method, then:
as §1, §2

In another data set the test system is PC3 cells. The format is cell-based, human. The method, then:
as §1, §2

As for `COc1c(C)c2c(c(O)c1C/C=C(\C)CCC(=O)O)C(=O)OC2` [MPA, mycophenolic acid], the “MTT staining of control cultures after 4 weeks of MPA treatment” value is listed as “no MTT staining above background levels” with COS7 cells (control (not transfected parental) COS7 cultures, 4 weeks); “no MTT staining above background levels” in the data set on MDA-MB-231 cells (control (not transfected parental) MDA-MB-231 cultures, 4 weeks); “no MTT staining above background levels” with PC3 cells (control (not transfected parental) PC3 cultures, 4 weeks). Further, the “MPA concentration to whose cytotoxic effect the cells were resistant” value is on record as “up to 50 μg/ml” in the data set on COS7 cells (single cell-derived cultures from pooled MPA-resistant COS7 colonies); “up to 50 μg/ml” in the data set on V79 cells (7 individual MPA-resistant V79 colonies (pFLAG-IMPDH transfected), MTT assay); “up to 50 μg/ml” with V79 cells (single cell-derived cultures from pooled MPA-resistant V79 colonies); “up to 50 μg/ml” in the data set with MDA-MB-231 cells (single cell-derived cultures from pooled MPA-resistant MDA-MB-231 colonies); “up to 50 μg/ml” with PC3 cells (single cell-derived cultures from pooled MPA-resistant PC3 colonies). Moreover, the “Time after MPA treatment at which growth inhibition was detected” value in the data set on COS7 cells (wild type COS7 cells) stood at 6 days; in the data set on V79 cells (wild type V79 cells) it was 3 days; with MDA-MB-231 cells (wild type MDA-MB-231 cells) it was 6 days; in the data set on PC3 cells (wild type PC3 cells) it was 6 days. The “MPA concentration at which cells failed to grow” value in the data set on V79 cells (parental (not transfected) V79 cells) is at most 0.8 µg/mL.
